Molecules are shown by their SMILES. pIC50: −log10 of the molar value. Square brackets hold non-standard residues; d marks the D form. Peptide text beside a SMILES is read from it. ξ: configuration not given here. Phe(4-tetrazol-5-yl) = N[C@@H](Cc1ccc(-c2nnn[nH]2)cc1)C(=O)O; Phe(4-COOH) = N[C@@H](Cc1ccc(C(=O)O)cc1)C(=O)O; pY = N[C@@H](Cc1ccc(OP(=O)(O)O)cc1)C(=O)O; Thr(3ξ) = CC(O)[C@H](N)C(=O)O

Signal transducer and activator of transcription 3, sequence (P42227 whole entry, the tested form may be a part): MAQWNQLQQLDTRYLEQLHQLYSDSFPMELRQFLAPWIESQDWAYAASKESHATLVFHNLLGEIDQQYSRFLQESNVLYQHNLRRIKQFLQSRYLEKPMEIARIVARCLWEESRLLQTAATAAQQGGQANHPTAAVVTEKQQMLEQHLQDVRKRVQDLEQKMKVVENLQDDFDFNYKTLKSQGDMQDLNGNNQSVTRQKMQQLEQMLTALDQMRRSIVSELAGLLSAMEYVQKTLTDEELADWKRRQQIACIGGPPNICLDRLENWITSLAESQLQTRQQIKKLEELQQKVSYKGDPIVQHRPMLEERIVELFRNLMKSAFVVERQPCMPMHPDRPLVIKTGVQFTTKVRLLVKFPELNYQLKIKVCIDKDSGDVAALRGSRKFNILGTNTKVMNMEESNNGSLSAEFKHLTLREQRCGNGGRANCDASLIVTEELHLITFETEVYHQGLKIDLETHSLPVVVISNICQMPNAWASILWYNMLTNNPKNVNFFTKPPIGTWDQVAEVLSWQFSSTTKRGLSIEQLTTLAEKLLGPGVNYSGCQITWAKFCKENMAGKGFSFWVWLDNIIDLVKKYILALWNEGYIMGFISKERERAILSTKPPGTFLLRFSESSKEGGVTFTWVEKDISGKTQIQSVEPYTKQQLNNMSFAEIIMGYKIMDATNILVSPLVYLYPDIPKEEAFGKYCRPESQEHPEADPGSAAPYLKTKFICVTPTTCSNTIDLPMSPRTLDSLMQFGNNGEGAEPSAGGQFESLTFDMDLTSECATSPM

In this experiment the target is Signal transducer and activator of transcription 3 (Mus musculus, UniProt P42227). The experiment is described as follows: Electrophoretic Mobility Shift Assay (EMSA). Particulars: pH 7.8; 22 °C. The procedure:
His10-Stat3 was expressed in Sf9 cells from a baculovirus encoding the recombinant protein. A nuclear extract of the Sf9 cells was incubated with 32P-labeled high affinity c-fos sis inducible element (hSIE) either alone or in the presence of inhibitor. After 20 min of incubation, samples were electrophoresed on polyacrylamide gels. The gels were dried, exposed to a phosphorimager screen and scanned. IC50 values were derived from plots of spot intensity versus phosphopeptide concentration. The affinity of peptides to the SH2 domain is measured by the intensity of the radioactivity of the Stat3-DNA complex band in the electrophoresis gel.
Background: In EMSA bound probe runs differently from free probe, usually more slowly.
Regarding `CC(=O)N[C@@H](Cc1ccc(OP(=O)(O)O)cc1)C(=O)N[C@@H](CC(C)C)C(=O)N1CCC[C@H]1C(=O)N[C@@H](CCC(N)=O)C(N)=O` (Ac-[pY]LPQ-NH2), the pIC50 (in general, the negative decadic logarithm of the IC50, by convention in mol/L) is 6.00.

As for `CC(=O)N[C@@H](Cc1ccc(OP(=O)(O)O)cc1)C(=O)N[C@@H](CC(C)C)C(=O)N[C@@H](C)C(=O)N[C@@H](CCC(N)=O)C(=O)N[C@H](C(=O)N[C@H](C(N)=O)C(C)C)C(C)O` (stereo partly drawn) [4-[(2S)-2-{[(1S)-1-{[(1S)-1-{[(1S)-3-carbamoyl-1-{[(1S,2S)-1-{[(1S)-1-carbamoyl-2-methylpropyl]carbamoyl}-2-hydroxypropyl]carbamoyl}propyl]carbamoyl}ethyl]carbamoyl}-3-methylbutyl]carbamoyl}-2-acetamidoethyl]phenoxyphosphonic acid] (Ac-[pY]LAQ[Thr(3ξ)]V-NH2), the pIC50 was 5.40.

With `CC(=O)N[C@@H](Cc1ccc(OP(=O)(O)O)cc1)C(=O)N[C@@H](CC(C)C)C(=O)N[C@@H](CCCCN)C(=O)N[C@H](C(=O)N[C@@H](CCCCN)C(=O)N[C@@H](Cc1ccccc1)C(N)=O)C(C)O` (stereo partly drawn) [4-[(2S)-2-{[(1S)-1-{[(1S)-5-amino-1-{[(1S,2R)-1-{[(1S)-5-amino-1-{[(1S)-1-carbamoyl-2-phenylethyl]carbamoyl}pentyl]carbamoyl}-2-hydroxypropyl]carbamoyl}pentyl]carbamoyl}-3-methylbutyl]carbamoyl}-2-acetamidoethyl]phenoxyphosphonic acid] (Ac-[pY]LK[Thr(3ξ)]KF-NH2), the pIC50 was 4.70.

Turning to `CC(=O)N[C@@H](Cc1ccc(OP(=O)(O)O)cc1)C(=O)N[C@@H](CC(C)C)C(=O)N1CCC[C@H]1C(=O)N[C@@H](CC(N)=O)C(=O)N[C@H](C(=O)N[C@H](C(N)=O)C(C)C)C(C)O` (stereo partly drawn) [4-[(2S)-2-{[(2S)-1-[(2S)-2-{[(1S)-2-carbamoyl-1-{[(1S,2S)-1-{[(1S)-1-carbamoyl-2-methylpropyl]carbamoyl}-2-hydroxypropyl]carbamoyl}ethyl]carbamoyl}pyrrolidin-1-yl]-4-methyl-1-oxopentan-2-yl]carbamoyl}-2-acetamidoethyl]phenoxyphosphonic acid] (Ac-[pY]LPN[Thr(3ξ)]V-NH2), the pIC50 is 5.70.

Regarding `CC(=O)N[C@@H](Cc1ccc(OP(=O)(O)O)cc1)C(=O)N[C@@H](CC(C)C)C(=O)N1CCC[C@H]1C(=O)N[C@@H](CCC(N)=O)C(=O)N[C@H](C(N)=O)C(C)O` (stereo partly drawn) [4-[(2S)-2-{[(2S)-1-[(2S)-2-{[(1S)-3-carbamoyl-1-{[(1S,2S)-1-carbamoyl-2-hydroxypropyl]carbamoyl}propyl]carbamoyl}pyrrolidin-1-yl]-4-methyl-1-oxopentan-2-yl]carbamoyl}-2-acetamidoethyl]phenoxyphosphonic acid] (Ac-[pY]LPQ[Thr(3ξ)]-NH2), the pIC50 is 6.22.

Take `CC(=O)N[C@@H](Cc1ccc(C(=O)O)cc1)C(=O)N[C@@H](CC(C)C)C(=O)N1CCC[C@H]1C(=O)N[C@@H](CCC(N)=O)C(=O)N[C@H](C(=O)N[C@H](C(N)=O)C(C)C)C(C)O` (stereo partly drawn) [4-[(2S)-2-{[(2S)-1-[(2S)-2-{[(1S)-3-carbamoyl-1-{[(1S,2S)-1-{[(1S)-1-carbamoyl-2-methylpropyl]carbamoyl}-2-hydroxypropyl]carbamoyl}propyl]carbamoyl}pyrrolidin-1-yl]-4-methyl-1-oxopentan-2-yl]carbamoyl}-2-acetamidoethyl]benzoic acid] (Ac-[Phe(4-COOH)]LPQ[Thr(3ξ)]V-NH2): the pIC50 was < 5.22.

`CC(=O)N[C@@H](Cc1ccc(OP(=O)(O)O)cc1)C(=O)N[C@@H](CC(C)C)C(=O)N1CCC[C@H]1C(=O)N[C@@H](CCC(N)=O)C(=O)N[C@H](C(=O)N[C@H](C(N)=O)C(C)C)C(C)O` (stereo partly drawn) [4-[(2S)-2-{[(2S)-1-[(2S)-2-{[(1S)-3-carbamoyl-1-{[(1S,2S)-1-{[(1S)-1-carbamoyl-2-methylpropyl]carbamoyl}-2-hydroxypropyl]carbamoyl}propyl]carbamoyl}pyrrolidin-1-yl]-4-methyl-1-oxopentan-2-yl]carbamoyl}-2-acetamidoethyl]phenoxyphosphonic acid]: the pIC50 was 6.82.

In the case of `CC(=O)N[C@@H](Cc1ccc(OP(=O)(O)O)cc1)C(=O)N[C@@H](CC(C)C)C(=O)N1CCC[C@H]1C(=O)N[C@@H](CCC(N)=O)C(=O)N[C@H](C(=O)N[C@@H](C)C(N)=O)C(C)O` (stereo partly drawn) [4-[(2S)-2-{[(2S)-1-[(2S)-2-{[(1S)-3-carbamoyl-1-{[(1S,2S)-1-{[(1S)-1-carbamoylethyl]carbamoyl}-2-hydroxypropyl]carbamoyl}propyl]carbamoyl}pyrrolidin-1-yl]-4-methyl-1-oxopentan-2-yl]carbamoyl}-2-acetamidoethyl]phenoxyphosphonic acid] (Ac-[pY]LPQ[Thr(3ξ)]A-NH2), the pIC50 is 6.40.

Consider `CC(=O)N[C@@H](Cc1ccc(-c2nnn[nH]2)cc1)C(=O)N[C@@H](CC(C)C)C(=O)N1CCC[C@H]1C(=O)N[C@@H](CCC(N)=O)C(=O)N[C@H](C(=O)N[C@H](C(N)=O)C(C)C)C(C)O` (stereo partly drawn) [(2S)-N-[(1S,2S)-1-{[(1S)-1-carbamoyl-2-methylpropyl]carbamoyl}-2-hydroxypropyl]-2-{[(2S)-1-[(2S)-2-[(2S)-2-acetamido-3-[4-(2H-1,2,3,4-tetrazol-5-yl)phenyl]propanamido]-4-methylpentanoyl]pyrrolidin-2-yl]formamido}pentanediamide] (Ac-[Phe(4-tetrazol-5-yl)]LPQ[Thr(3ξ)]V-NH2), for which the pIC50 was < 5.22.

Consider `CC(=O)N[C@@H](Cc1ccc(OP(=O)(O)O)cc1)C(=O)N[C@@H](CC(C)C)C(=O)N[C@@H](CCCN=C(N)N)C(=O)N[C@@H](CS)C(=O)N[C@@H](CC(=O)O)C(=O)N[C@@H](CO)C(N)=O` [(3S)-3-[(2R)-2-[(2S)-5-carbamimidamido-2-[(2S)-2-[(2S)-2-acetamido-3-[4-(phosphonooxy)phenyl]propanamido]-4-methylpentanamido]pentanamido]-3-sulfanylpropanamido]-3-{[(1S)-1-carbamoyl-2-hydroxyethyl]carbamoyl}propanoic acid] (Ac-[pY]LRCDS-NH2), for which the pIC50 is 4.10.

As for `CC(=O)N[C@@H](Cc1ccc(OP(=O)(O)O)cc1)C(=O)N[C@@H](CC(C)C)C(=O)N1CCC[C@H]1C(=O)N[C@@H](CCC(=O)O)C(=O)N[C@H](C(=O)N[C@H](C(N)=O)C(C)C)C(C)O` (stereo partly drawn) [(4S)-4-{[(1S,2S)-1-{[(1S)-1-carbamoyl-2-methylpropyl]carbamoyl}-2-hydroxypropyl]carbamoyl}-4-{[(2S)-1-[(2S)-2-[(2S)-2-acetamido-3-[4-(phosphonooxy)phenyl]propanamido]-4-methylpentanoyl]pyrrolidin-2-yl]formamido}butanoic acid] (Ac-[pY]LPE[Thr(3ξ)]V-NH2), the pIC50 is < 5.22.

Take `CC(=O)N[C@@H](Cc1ccc(CP(=O)(O)O)cc1)C(=O)N[C@@H](CC(C)C)C(=O)N1CCC[C@H]1C(=O)N[C@@H](CCC(N)=O)C(=O)N[C@H](C(=O)N[C@H](C(N)=O)C(C)C)C(C)O` (stereo partly drawn) [({4-[(2S)-2-{[(2S)-1-[(2S)-2-{[(1S)-3-carbamoyl-1-{[(1S,2S)-1-{[(1S)-1-carbamoyl-2-methylpropyl]carbamoyl}-2-hydroxypropyl]carbamoyl}propyl]carbamoyl}pyrrolidin-1-yl]-4-methyl-1-oxopentan-2-yl]carbamoyl}-2-acetamidoethyl]phenyl}methyl)phosphonic acid]: the negative-log IC50 (pIC50) was 5.10.

`CC(=O)N[C@@H](Cc1ccc(OP(=O)(O)O)cc1)C(=O)N[C@@H](C)C(=O)N1CCC[C@H]1C(=O)N[C@@H](CCC(N)=O)C(=O)N[C@H](C(=O)N[C@H](C(N)=O)C(C)C)C(C)O` (some centres undefined) [Y(p)APQTV] (Ac-[pY]APQ[Thr(3ξ)]V-NH2): the negative-log IC50 (pIC50) was 5.80.

For `CCC(C)[C@H](NC(=O)[C@H](Cc1ccc(OP(=O)(O)O)cc1)NC(C)=O)C(=O)N[C@@H](CC(N)=O)C(=O)N[C@@H](CCC(N)=O)C(=O)N[C@@H](CO)C(=O)N[C@H](C(N)=O)C(C)C` (some centres undefined) [Y(p)INQSV], the pIC50 was 4.52.

Regarding `CC(=O)N[C@@H](Cc1ccc(OP(=O)(O)O)cc1)C(=O)N[C@@H](CC(C)C)C(=O)N1CCC[C@H]1C(=O)N[C@@H](C)C(=O)N[C@H](C(=O)N[C@H](C(N)=O)C(C)C)C(C)O` (some centres undefined) [Y(p)LPATV] (Ac-[pY]LPA[Thr(3ξ)]V-NH2), the pIC50 is < 5.22.

As for `CC(=O)N[C@@H](Cc1ccc(OP(=O)(O)O)cc1)C(=O)N[C@@H](CC(C)C)C(=O)N1CCC[C@H]1C(N)=O` [Y(p)LP] (Ac-[pY]-Leu-Pro-NH2), the pIC50 was < 5.22.

Regarding `CC(=O)N[C@@H](Cc1ccc(OP(=O)(O)O)cc1)C(=O)N[C@@H](CCC(N)=O)C(=O)N[C@@H](CCCCN)C(=O)N[C@@H](CCC(N)=O)C(=O)N[C@H](C(=O)N[C@@H](CCCN=C(N)N)C(N)=O)C(C)O` (some centres undefined) [Y(p)QKQTR] (Ac-[pY]QKQ[Thr(3ξ)]R-NH2), the pIC50 was 5.10.

`CC(=O)N[C@@H](Cc1ccc(OP(=O)(O)O)cc1)C(=O)N[C@@H](CO)C(=O)N[C@@H](CC(=O)O)C(=O)NCC(=O)N[C@@H](CC(N)=O)C(=O)N[C@@H](Cc1ccccc1)C(N)=O` [Y(p)SDGNF] (Ac-[pY]SDGNF-NH2): the pIC50 is < 3.82.

As to `CC(=O)N[C@@H](Cc1ccc(OP(=O)(O)O)cc1)C(=O)N[C@@H](CO)C(=O)N[C@H](C(=O)N[C@H](C(=O)N[C@H](C(=O)N[C@@H](Cc1cnc[nH]1)C(N)=O)C(C)C)C(C)C)C(C)O` (some centres undefined) [Y(p)STVVH] (Ac-[pY]S[Thr(3ξ)]VVH-NH2), the pIC50 is < 3.82.

Source of the values: BindingDB's records for doi:10.1016/S0960-894X(02)01050-8 (The University of Texas At Houston, 2003).
